Drawing on PubChem BioAssay (NCI), this text covers TGI for 16 compounds.

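Method: 48-hour compound exposure of cells in 96-well plates, five concentrations, linear interpolation of endpoints. TGI marks complete inhibition of growth.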 Where only a bound is given, the exact number is not on record here.

Assay in all cases: NCI tumour cell line growth inhibition, 48 h
The test system of assay [1] is 786-0 renal.
Assay [2] relates to A498 renal.
The test system of assay [3] is DU-145 prostate.
The test system of assay [4] is HL-60(TB) leukemia.
The subject of assay [5] is HT29 colon.
The test system of assay [6] is IGROV1 ovarian.
Assay [7] relates to KM12 colon.
The test system of assay [8] is MDA-MB-435.
Assay [9] concerns MOLT-4 leukemia.
In assay [10] the test system is NCI/ADR-RES ovarian.
The subject of assay [11] is OVCAR-3 ovarian.
The test system of assay [12] is RPMI-8226 leukemia.
Assay [13] has as its system RXF 393 renal.
The subject of assay [14] is SK-MEL-28 melanoma.
For assay [15], the system named is SK-MEL-5 melanoma.
Assay [16] concerns SNB-19 CNS.
Assay [17] deals with UACC-257 melanoma.

On to `O=S(=O)(CC(Cl)c1ccccc1)c1nc2ccccc2s1` (configuration not stated), for which the TGI in assay [1] came to 19.4 µM; in assay [2], 35.1 µM; in [3] it was 30.2 µM; in [4], 4.43 µM; in [5], 21.2 µM; in assay [6], 24.2 µM. Also, the TGI in assay [7] was determined as 32 µM; in [8] it was 20.5 µM; in assay [9], 7.64 µM; in [10] it was 49 µM; in assay [11], 23.2 µM; in assay [12] it was 9.65 µM. Further, the TGI amounted to 42 µM in [13]; 29.7 µM in assay [14]; 16.7 µM in [15]; 32.3 µM in assay [16]; 23.2 µM in assay [17].

In the case of `Cc1cc(C)n(-c2nc(-n3nc(C)cc3C)nc(-n3nc(C)cc3C)n2)n1`, the TGI in [1], in [2], in assay [3], in [4], in [5] and in assay [6] was above 100 µM in each case. Further, the TGI in assay [7], in assay [8], in assay [9], in assay [10], in [11] and in [12] was above 100 µM each time. In addition, the TGI in assay [13], in assay [14], in assay [15], in assay [16] and in [17] was above 100 µM throughout.

As for `O=C(/C=C/c1ccc([N+](=O)[O-])cc1)N1CCN(CCOC(c2ccc(F)cc2)c2ccc(F)cc2)CC1`, the TGI in assay [1], in assay [2], in assay [3], in assay [4], in [5] and in assay [6] was above 100 µM throughout. The TGI in assay [7] was above 100 µM; in [8], above 100 µM; in [9], 19 µM; in [10], above 100 µM; in assay [11], above 100 µM; in [12], 36.9 µM. In addition, the TGI in assay [13], in [14], in assay [15], in [16] and in assay [17] was above 100 µM throughout.

Turning to `NC1CCN(c2nc3ccccc3c3c2CCCC3)CC1`, the TGI came out at 13.3 µM in assay [1]; 22.7 µM in assay [2]; 24.3 µM in assay [3]; 8.84 µM in [4]; 5.27 µM in assay [5]; 19.5 µM in assay [6]. Besides, the TGI is 15.2 µM in assay [7]; 7.61 µM in assay [8]; 9.36 µM in assay [9]; 28.8 µM in assay [10]; 28.1 µM in assay [11]; 11.1 µM in assay [12]. Besides, the TGI in assay [13] turned out to be 11.2 µM; in assay [14] it was 10.6 µM; in [15], 7.01 µM; in [16] it was 22.7 µM; in assay [17] it was 4.31 µM.

Take `C/C(O)=C(/C=N/C(=S)Nc1ccccc1)C(=O)Nc1ccccc1C`: the TGI in assay [1], in [2], in assay [3], in [4], in assay [5] and in [6] was above 100 µM in each case. The TGI in [7], in assay [8], in [9], in assay [10], in assay [11] and in [12] was above 100 µM each time. In addition, the TGI in assay [13], in assay [14], in assay [15], in assay [16] and in assay [17] was above 100 µM throughout.

As for `C/C(=C/CC[C@](C)(OC1OC(CO)C(O)C(O)C1O)[C@H]1CC[C@]2(C)[C@@H]1CC[C@@H]1[C@@]3(C)CC[C@H](O)C(C)(C)[C@@H]3C[C@H](O)[C@]12CO)CO` (some centres not stated), the TGI in assay [1], in assay [2], in [3], in assay [4], in assay [5] and in assay [6] was above 100 µM each time. Besides, the TGI in assay [7], in assay [8], in [9], in [10], in assay [11] and in assay [12] was above 100 µM each time. The TGI in [13], in assay [14], in assay [15], in assay [16] and in [17] was above 100 µM each time.

`O=C(NCCCCCCCCNC(=O)Nc1cccc2ccccc12)Nc1cccc2ccccc12`: the TGI in [1] was 24.9 µM; in assay [2], 34.7 µM; in assay [3], above 100 µM; in assay [4], above 100 µM; in assay [5], above 100 µM; in [6], above 100 µM. The TGI in assay [7] is above 100 µM; in [8], 81.3 µM; in assay [9], above 100 µM; in assay [10], above 100 µM; in [11] it was above 100 µM; in [12] it was above 100 µM. Besides, the TGI in assay [13] was 67.6 µM; in assay [14], above 100 µM; in assay [15], above 100 µM; in [16] it was above 100 µM; in assay [17], above 100 µM.

Regarding `O=C(CCN1CCCCC1)Nc1ccc2c(c1)C(=O)c1ccc(NC(=O)CCN3CCCCC3)cc1C2=O`, the TGI was 3.8 µM in [1]; 26.7 µM in [2]; 26.9 µM in [3]; 20.8 µM in assay [4]; 9.99 µM in [5]; 13.2 µM in assay [6]. Moreover, the TGI in [7] amounted to 3.26 µM; in assay [8] it was 3.25 µM; in assay [9], 14.5 µM; in assay [10], 25.8 µM; in assay [11], 20.9 µM; in assay [12], 14.6 µM. The TGI was found to be 17.6 µM in [13]; 32.8 µM in assay [14]; 10.2 µM in assay [15]; 10.1 µM in [16]; 30.5 µM in assay [17].

As for `NC(=O)N/N=C\CC(O)(C(F)(F)Cl)C(F)(F)Cl`, the TGI in assay [1], in assay [2], in [3], in assay [4], in assay [5] and in [6] was above 10 µM throughout. For the same compound, the TGI in assay [7], in [8], in assay [9], in assay [10], in assay [11] and in [12] was above 10 µM each time. In addition, the TGI in assay [13], in assay [14], in [15], in [16] and in [17] was above 10 µM each time.

Regarding `Fc1cc2nc3n(c2cc1F)C(c1c(F)cccc1F)SC3` (configuration not stated), the TGI in [1] was 80.6 µM; in [2], 98.3 µM; in assay [3], above 100 µM; in assay [4], 51.2 µM; in assay [5], above 100 µM; in assay [6] it was above 100 µM. For the same compound, the TGI in assay [7], in assay [8], in [9], in [10], in [11] and in [12] was above 100 µM in each case. In addition, the TGI is above 100 µM in assay [13]; above 100 µM in assay [14]; 34.6 µM in [15]; above 100 µM in assay [16]; above 100 µM in assay [17].

Turning to `CSc1nc(-c2ccccc2)[nH]c(=O)n1`, the TGI in assay [1], in assay [2], in [3], in [4], in [5] and in [6] was above 100 µM each time. Besides, the TGI in [7], in assay [8], in [9], in [10], in assay [11] and in [12] was above 100 µM throughout. Moreover, the TGI in assay [13], in assay [14], in assay [15], in [16] and in [17] was above 100 µM in each case.

As to `O=C(N/C(=C\c1ccccc1)c1nc2ccccc2c(=O)o1)c1ccccc1`, the TGI in assay [1], in assay [2], in [3], in [4], in assay [5] and in assay [6] was above 100 µM in each case. For the same compound, the TGI in assay [7], in assay [8], in assay [9], in assay [10], in assay [11] and in assay [12] was above 100 µM each time. The TGI was above 100 µM in assay [13]; above 100 µM in assay [14]; above 100 µM in assay [15]; above 67.1 µM in [16]; above 72.6 µM in [17].

Consider `CC(=O)Nc1ccc(S(=O)(=O)c2nnc(NC(C)=O)s2)cc1`, for which the TGI in assay [1], in assay [2], in assay [3], in [4], in assay [5] and in [6] was above 100 µM throughout. The TGI in assay [7], in assay [8], in assay [9], in assay [10], in assay [11] and in [12] was above 100 µM in each case. The TGI in assay [13], in [14], in assay [15], in assay [16] and in assay [17] was above 100 µM each time.

For the compound `N#Cc1ccc(C2ON=C(c3ccccc3)N2C23CC4CC(CC(C4)C2)C3)cc1` (configuration not stated), the TGI in assay [1], in assay [2], in [3], in [4], in assay [5] and in [6] was above 10 µM throughout. Moreover, the TGI in assay [7], in assay [8], in [9], in [10], in assay [11] and in [12] was above 10 µM each time. For the same compound, the TGI in assay [13], in assay [14], in [15], in [16] and in assay [17] was above 10 µM in each case.

Regarding `Cn1c(=O)c2c(nc3n2CCCC(=O)N3CCCCl)n(C)c1=O`, the TGI in [1], in assay [2], in [3], in [4], in assay [5] and in assay [6] was above 100 µM throughout. In addition, the TGI in assay [7], in assay [8], in assay [9], in [10], in assay [11] and in assay [12] was above 100 µM each time. In addition, the TGI in assay [13], in assay [14], in [15], in assay [16] and in [17] was above 100 µM in each case.

For `O=C1c2ccccc2CC12Cc1cc3c(cc1C2)CCC3`, the TGI is above 100 µM in [1]; above 100 µM in assay [2]; above 100 µM in assay [3]; above 100 µM in assay [4]; 62.1 µM in assay [5]; above 100 µM in assay [6]. Moreover, the TGI in assay [7] is 93.9 µM; in assay [8], above 100 µM; in [9], 82.1 µM; in [10], above 100 µM; in [11] it was above 100 µM; in assay [12] it was above 100 µM. Further, the TGI in assay [13] is above 100 µM; in assay [14], above 100 µM; in assay [15], 35.8 µM; in assay [16], above 100 µM; in [17], 91.3 µM.
